According to patent publication US20100167275A1, “Potassium channel mutants of the yeast Saccharomyces cerevisiae and their use for screening eukaryotic potassium channels” (sanofi-aventis Deutschland GmbH, priority 2000, published 2010):
Several values for one entry are separate records, joined by “and”; a condition that tells them apart may be missing. Equal values may be shown once.

Assays:
human Kv1.5 channel = target: T1, human Kv1.5 channel (Homo sapiens, UniProt P22460, DEL187-187/DEL55-55/P188G/P307A/R154P); test: Complementation of growth deficiency by Kv1.5 in the presence of activators; assay type: cell-based; conditions: 2 mM CsCl
T1 construct: expressed in transfected cells; host or cells: Saccharomyces cerevisiae Δtrk1 Δtrk2 Δtok1 (YM195; also Δtrk1 Δtrk2 YM190), vector p423-GPD3
T1 sequence (P22460 with tags, fused parts or gaps DEL55-55/R154P/DEL187-187/P188G/P307A): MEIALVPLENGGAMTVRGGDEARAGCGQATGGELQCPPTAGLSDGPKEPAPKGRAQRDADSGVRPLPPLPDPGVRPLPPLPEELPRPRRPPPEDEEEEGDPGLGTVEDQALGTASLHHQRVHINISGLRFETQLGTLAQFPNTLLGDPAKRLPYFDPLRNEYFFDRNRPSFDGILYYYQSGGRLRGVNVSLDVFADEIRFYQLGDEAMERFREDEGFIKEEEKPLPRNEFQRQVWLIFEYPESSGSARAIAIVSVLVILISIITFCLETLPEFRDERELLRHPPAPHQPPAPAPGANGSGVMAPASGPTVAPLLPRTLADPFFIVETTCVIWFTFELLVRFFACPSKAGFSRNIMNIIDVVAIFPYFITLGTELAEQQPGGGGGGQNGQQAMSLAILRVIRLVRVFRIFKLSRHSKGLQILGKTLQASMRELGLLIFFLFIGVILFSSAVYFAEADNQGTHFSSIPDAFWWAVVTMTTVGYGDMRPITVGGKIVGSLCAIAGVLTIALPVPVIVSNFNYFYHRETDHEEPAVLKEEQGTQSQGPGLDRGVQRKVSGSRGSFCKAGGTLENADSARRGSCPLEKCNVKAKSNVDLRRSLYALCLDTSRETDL
Excerpt: (§1) Each of the strains YM168 (Δtrk1 Δtrk2) and YM182 (Δtrk1 Δtrk2 Δtok1) was transformed with the human potassium channels Kv1.5 ((Fedida, D. et al, 1998); YM190 and YM195) and HERG1 ((Fedida, D. et al., 1998); YM191 and YM196) in p423-GPD3, respectively, as yeast expression vector. gpIRK1 ((Tang, W. et al., 1995); YM193 and YM198) acted as positive control in p423-GPD3 as yeast expression vector (Mumberg, D. et al., 1995; Ronicke, V. et al., 1997). The blank vector p423-GPD3 (YM189 and YM194) acted as negative control. The transformed yeast strains were plated onto (−)HIS/80 mM KCl medium. After this, patches of single colonies were replica-plated onto DPM/5 mM KCl (pH 6.5) to check the capacity of complementing the potassium deficiency.
(§2) Kv1.5: Rb^+ extends the hyperpolarization phase. This means that the inwardly directed K^+ flux is more prolonged and increases the possibility of complementing the growth deficiency.
The yeast strains YM 194 and YM 195 were tested in DPM/-HIS/5 mM KCl with 1 mM RbCl for the different growth behavior in liquid medium. To this end, 10 ml of overnight culture were set up in DPM/-HIS/80 mM KCl and, next morning, brought to an OD600 of 0.05 with the relevant media (final volume: 20 ml). The optical density at 600 nm was determined at defined intervals with the aid of a photometer.

human HERG1 channel = target: T2, human HERG1 channel (Homo sapiens, UniProt Q12809); test: Complementation of growth deficiency by HERG1 on culture plates in the presence of activators; assay type: cell-based; conditions: 2 mM CsCl, DPM 5 mM KCl pH 6.5, FIG. 4
T2 construct: expressed in transfected cells; host or cells: Saccharomyces cerevisiae Δtrk1 Δtrk2 Δtok1 (YM182 background; strain YM196), vector p423-GPD3
T2 sequence (Q12809 whole entry): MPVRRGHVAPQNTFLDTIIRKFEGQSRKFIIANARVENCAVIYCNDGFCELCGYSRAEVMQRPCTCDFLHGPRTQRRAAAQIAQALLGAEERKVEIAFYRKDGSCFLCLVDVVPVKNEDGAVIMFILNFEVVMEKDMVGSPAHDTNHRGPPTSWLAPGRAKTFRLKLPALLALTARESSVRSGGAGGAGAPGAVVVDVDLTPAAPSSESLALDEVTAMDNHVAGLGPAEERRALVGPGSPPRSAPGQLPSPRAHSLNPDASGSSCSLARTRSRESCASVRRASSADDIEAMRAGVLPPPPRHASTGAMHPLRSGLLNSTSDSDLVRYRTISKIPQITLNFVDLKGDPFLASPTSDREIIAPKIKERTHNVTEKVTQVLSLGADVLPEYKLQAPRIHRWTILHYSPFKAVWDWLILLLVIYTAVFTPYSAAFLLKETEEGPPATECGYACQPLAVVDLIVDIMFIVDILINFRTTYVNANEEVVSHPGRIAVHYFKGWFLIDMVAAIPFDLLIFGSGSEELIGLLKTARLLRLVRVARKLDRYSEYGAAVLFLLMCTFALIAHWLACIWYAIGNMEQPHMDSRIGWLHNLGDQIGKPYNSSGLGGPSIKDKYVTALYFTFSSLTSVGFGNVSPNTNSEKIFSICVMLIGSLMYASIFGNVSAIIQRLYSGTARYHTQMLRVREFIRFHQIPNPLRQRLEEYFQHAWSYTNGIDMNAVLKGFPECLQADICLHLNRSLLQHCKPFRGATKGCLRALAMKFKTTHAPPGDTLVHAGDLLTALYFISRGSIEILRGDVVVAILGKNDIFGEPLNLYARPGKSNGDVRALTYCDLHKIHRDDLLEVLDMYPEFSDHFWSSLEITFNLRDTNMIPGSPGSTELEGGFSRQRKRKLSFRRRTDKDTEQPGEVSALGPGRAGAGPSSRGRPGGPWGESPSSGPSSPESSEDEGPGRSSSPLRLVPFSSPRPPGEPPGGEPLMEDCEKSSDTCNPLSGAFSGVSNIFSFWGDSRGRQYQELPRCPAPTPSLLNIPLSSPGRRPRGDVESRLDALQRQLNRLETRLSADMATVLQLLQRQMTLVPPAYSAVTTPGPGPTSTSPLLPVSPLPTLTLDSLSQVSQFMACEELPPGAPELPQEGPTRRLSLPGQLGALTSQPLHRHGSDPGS
Excerpt: as §1, §2
HERG: Cs^+ extends the hyperpolarization phase. This means that the inwardly directed K^+ flux is more prolonged and increases the possibility of complementing the growth deficiency. This channel is inhibited by Cs^+. IRK1: Cs^+ blocks this channel.

gpIRK1 = target: T3, gpIRK1 (Cavia porcellus, UniProt P52185); test: Complementation of growth deficiency by gpIRK1 in the presence of CsCl; assay type: cell-based, guinea pig; conditions: 2 mM CsCl
T3 construct: expressed in transfected cells; host or cells: Saccharomyces cerevisiae Δtrk1 Δtrk2 (YM193) and Δtrk1 Δtrk2 Δtok1 (YM198), vector p423-GPD3
T3 sequence (P52185 1-427): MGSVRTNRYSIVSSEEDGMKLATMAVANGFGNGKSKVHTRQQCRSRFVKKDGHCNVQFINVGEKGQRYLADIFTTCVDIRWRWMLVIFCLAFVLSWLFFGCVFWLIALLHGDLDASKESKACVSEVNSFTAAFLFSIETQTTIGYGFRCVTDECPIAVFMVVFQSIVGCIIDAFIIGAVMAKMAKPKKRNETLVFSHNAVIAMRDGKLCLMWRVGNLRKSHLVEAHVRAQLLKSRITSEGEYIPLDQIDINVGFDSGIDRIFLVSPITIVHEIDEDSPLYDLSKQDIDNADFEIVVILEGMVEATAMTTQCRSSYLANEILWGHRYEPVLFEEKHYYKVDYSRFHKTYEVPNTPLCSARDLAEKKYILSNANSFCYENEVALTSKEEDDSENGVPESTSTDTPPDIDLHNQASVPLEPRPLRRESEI
Excerpt: as §1

[1] = target: human potassium channel HERG1 (Homo sapiens, UniProt Q12809)
Sequence of human potassium channel HERG1 (Q12809 whole entry): as the sequence (Q12809 whole entry) above
Protocol: FIG. 7: Expression of the human potassium channel HERG1 in the triple mutant Δtrk1Δtrk2Δtok1 in DPM-HIS/-TRP 5 mM KCl medium in 96-well ELISA plates in the presence of 0.5 mM CsCl as activator.
(§3) The various inhibitors were employed at a final concentration of in each case 30 μM. To measure the cell density, a commercially available LacZ reporter system pYX232 by Ingenius (cat. No. MBV-032-10) was transformed into the yeast strains to be studied. Expression of the LacZ reporter gene was under the control of the constitutive Saccharomyces cerevisiae promotor TPI for the triose phosphate isomerase gene. The LacZ enzyme activity was measured via detecting the luminescence after 24 hours' growth (density of the starter culture: 0.01 OD620) using a commercially available assay system by TROPIX. The values correspond to the average of in each case 4 measurements±SD. The two different assays were carried out independently of each other on two different days.
FIG. 8: Expression of the human potassium channel HERG1 in the triple mutant Δtrk1Δtrk2Δtok1 in DPM-HIS 5 mM KCl medium in 96-well ELISA plates in the presence of 0.5 mM CsCl as activator.
The various inhibitors were employed at a final concentration of in each case 30 μM. The cell density was measured after 38 hours' growth (density of the starter culture: 0.03 OD620) via determination of the optical density at a wavelength of 620 nm. The values corresponded to the average of in each case 4 measurements±SD.
All growth assays in the triple mutant Δtrk1Δtrk2Δtok1 were carried out in growth medium DPM (defined potassium medium) at the pH and the potassium concentration stated in each case.
(§4) All substances, dissolved in DMSO, were employed in a final concentration of 30 μM. As a control, cells were measured with the same final concentration of 0.5% DMSO without substance, without DMSO addition or without substance.

[2] = test system: Saccharomyces cerevisiae wild-type strain; assay type: cell-based; conditions: 30 μM, wild-type cells, DPM -HIS/-TRP, 0.5 mM CsCl, 24 hours growth, TROPIX kit
Protocol: as §3, with “FIG. 9: Growth of the Saccharomyces cerevisiae wild-type strain in DPM-HIS/-TRP 5 mM KCl medium in 96-well ELISA plates in the presence of 0.5 mM CsCl. The various” for “The various”, “by TROPIX.” for “by TROPIX. The values correspond to the average of in each case 4 measurements±SD. The two different assays were carried out independently of each other on two different days.”
The values correspond to the average of in each case 4 measurements±SD. The two different assays were carried out independently of each other on two different days.
as §4

[3] = test system: Saccharomyces cerevisiae wild-type strain; test: Growth of wild-type strain in DPM medium with 5 mM or 80 mM KCl, OD 620 nm; assay type: cell-based; conditions: 30 μM
Excerpt: However, the present results could not exclude that the inhibitory effect found for these substances can possibly also be attributed to an inhibition of other proteins which are essential for the growth of yeast cells. […]

[4] = wild-type cells, DPM, 5 mM KCl, 24 hours growth, starting culture 0.01 OD
[5] = wild-type cells, DPM, 80 mM KCl, 24 hours growth, starting culture 0.01 OD

How did the “complementation of the growth deficiency by Kv1.5 in the presence of CsCl” value (human Kv1.5 channel) turn out when `[Cl-].[Cs+]` [CsCl] was run?
Its value is “inhibited”.

What about the “complementation of the growth deficiency of the Δtrk1 Δtrk2 Δtok1 mutant by human HERG1 in the presence of activator” value (human HERG1 channel) of the same compound?
The value was “fully complementing”.

What about the “complementation of the growth deficiency by gpIRK1 in the presence of CsCl” value (gpIRK1) of the same compound?
Its value is “inhibited”.

Which results are given for `O=c1[nH]c2ccccc2n1C1CCN(CCCC(c2ccc(F)cc2)c2ccc(F)cc2)CC1` [Pimozide, 1-(4,4-bis(P-fluorophenyl)butyl)-4-(2-oxo-1-benzimidazolinyl)-piperidine]?
Exp. 1 (growth, OD620 nm) [1]: 0.004; Exp. 2 (growth, OD620 nm) [1]: 0.004; Exp. 3 (growth, OD620 nm) [1]: 0.005; Exp. 4 (growth, OD620 nm) [1]: 0.005; Mean growth (OD620 nm) [1]: 0.0045; complementation of the growth deficiency of the triple mutant by human HERG1 in the presence of the substance [1]: can no longer complement; Exp. 1 (LacZ luminescence), ASSAY 1 ([2]; ASSAY 1): 357.4; Exp. 2 (LacZ luminescence), ASSAY 1 ([2]; ASSAY 1): 747.9; Exp. 3 (LacZ luminescence), ASSAY 1 ([2]; ASSAY 1): 804.6; Exp. 4 (LacZ luminescence), ASSAY 1 ([2]; ASSAY 1): 585.4; Mean growth (LacZ luminescence), ASSAY 1 ([2]; ASSAY 1, mean of 4): 623.825; Exp. 1 (LacZ luminescence), ASSAY 2 ([2]; ASSAY 2): 905; Exp. 2 (LacZ luminescence), ASSAY 2 ([2]; ASSAY 2): 2176; Exp. 3 (LacZ luminescence), ASSAY 2 ([2]; ASSAY 2): 496.5; Exp. 4 (LacZ luminescence), ASSAY 2 ([2]; ASSAY 2): 573.4; Mean growth (LacZ luminescence), ASSAY 2 ([2]; ASSAY 2, mean of 4): 1037.725; toxic effect on yeast cells (Saccharomyces cerevisiae) ([3]; growth medium containing 80 mM KCl, FIG. 10): no generally toxic effect; growth OD 620 nm, 5 mM KCl, measurement 1 [3, 4]: 0.904; growth OD 620 nm, 5 mM KCl, measurement 2 [3, 4]: 0.823; growth OD 620 nm, 5 mM KCl, measurement 3 [3, 4]: 0.305; growth OD 620 nm, 5 mM KCl, measurement 4 [3, 4]: 0.614; 5 mM KCl (average growth, OD 620 nm) ([3]; wild-type cells, DPM, 5 mM KCl, 24 hours growth, starting culture 0.01 OD, average of 4): 0.6615; growth OD 620 nm, 80 mM KCl, measurement 1 [3, 5]: 3.673; growth OD 620 nm, 80 mM KCl, measurement 2 [3, 5]: 3.505; growth OD 620 nm, 80 mM KCl, measurement 3 [3, 5]: 3.46 and 3.48; growth OD 620 nm, 80 mM KCl, measurement 4 [3, 5]: 3.441; 80 mM KCl (average growth, OD 620 nm) ([3]; wild-type cells, DPM, 80 mM KCl, 24 hours growth, starting culture 0.01 OD, average of 4): 3.5 and 3.52
